Reference: ChEMBL document CHEMBL1159274, “Spiganthine, the cardioactive principle of Spigelia anthelmia” (J Nat Prod, 1995)

Tests used:
[1] = (§1) Induction of delay in contraction development in electrically-stimulated guinea pig heart ventricular papillary muscle at contraction frequency of 1 Hz; format: functional, tissue-based; conditions: Cavia porcellus, Muscle tissue
[2] = species: Cavia porcellus; test: as §1; format: functional, tissue-based; conditions: Muscle tissue

With `CC(C)[C@@]1(O)[C@@H](OC(=O)c2cc[nH]c2)[C@@]2(O)[C@@]3(CO)C[C@]4(O)O[C@@]5([C@H](O)[C@@H](C)CC[C@]35O)[C@@]2(O)[C@]14C` [SPIGANTHINE] the EC50 [1] was 60 nM and the Activity [2] was “Dose-dependent effect”.

Work on `CC(C)[C@@]1(O)[C@@H](OC(=O)c2cc[nH]c2)[C@@]2(O)[C@]3(C)C[C@@]4(O)O[C@@]5([C@H](O)[C@@H](C)CC[C@]35O)[C@@]2(O)[C@@]41C` [RYANODINE] yielded a minimal effective concentration ([1]; read-out: MEC) of 0.0165 µM.
